The source of these data is US20080103141A1, “New compounds” (Biovitrum, priority 2006, published 2008).

For this test, the target named is T1, human GPR119 receptor (Homo sapiens, UniProt Q8TDV5).
T1 construct: expressed in transfected cells
T1 sequence (Q8TDV5 1-335): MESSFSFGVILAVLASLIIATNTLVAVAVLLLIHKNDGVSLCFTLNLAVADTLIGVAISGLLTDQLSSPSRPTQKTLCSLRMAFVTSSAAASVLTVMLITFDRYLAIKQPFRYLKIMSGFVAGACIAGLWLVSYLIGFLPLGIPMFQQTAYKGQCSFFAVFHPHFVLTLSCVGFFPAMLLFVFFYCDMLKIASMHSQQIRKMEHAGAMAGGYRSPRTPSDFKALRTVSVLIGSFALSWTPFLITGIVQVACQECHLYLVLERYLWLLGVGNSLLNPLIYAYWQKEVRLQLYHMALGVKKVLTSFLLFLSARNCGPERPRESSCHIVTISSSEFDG
Briefly: Human GPR119 activity assay (cAMP HTRF in HEK293-hGPR119 cells). It counts as cell-based. The conditions noted are these: stimulation of cAMP in HEK293 cells stably expressing human GPR119, 20 min at room temperature, read-out: Agonist potency at the human GPR119, EC50. As for the experimental part:
Human GPR119 Activity Assay
Agonists to the human GPR119 receptor were characterized by measuring human GPR119 receptor-mediated stimulation of cyclic AMP (cAMP) in HEK 293 cells expressing the human GPR119 receptor.
Briefly, cAMP content was determined using a cAMP kit based on HTRF technology (Homogeneous Time-Resolved Fluorescence, Cisbio Cat. no. 62AM2PEC). HEK293 cells stably expressing the human GPR119 receptor (HEK293-hGPR119 cells) were cultured in DMEM (Gibco # 31966-021) supplemented with 10% Bovine Calf Serum (Hyclone # SH30072.03), and, 500 μg/mL Hygromycin B (Roche Diagnostics 843555). At 80% confluency, cells were detached using Trypsine and aliquoted at a density of 5×10^6 cells/mL in freezing medium (DMEM (Gibco # 31966-021), 20% BCS (Hyclone # SH30072.03), 10% DMSO (Sigma #D2650) and stored at −135° C. On the experimental day, HEK293-hGPR119 cells were thawn and diluted to 0.4×10^6 cells/mL in assay buffer (1×HBSS (Gibco Cat. no. 14025-049), 20 mM Hepes (Gibco Cat. no. 15630-056), 0.1% BSA, pH 7.4) and incubated with test substances for 20 min at room temperature. After addition of HTRF reagents diluted in lysis buffer, the 96- or 384-well plates were incubated 1 hour, followed by measuring the fluorescence ratio at 665 nm/620 nm. Test substances was diluted in compound buffer (1×HBSS (Gibco Cat. no. 14025-049), 20 mM Hepes (Gibco Cat. no. 15630-056), 0.1% BSA, 2 mM IBMX (Sigma-Aldrich Cat. No. 17018, pH 7.4). The potency of the agonist was quantified by determine the concentration that cause 50% activation of hGPR119 evoked increase in cAMP, EC50.
In general terms: Time-resolved FRET reads energy transfer from a long-lived donor to a nearby acceptor.
What is called EC50 is the concentration giving half of the maximal effect. Turning to `CC(C)(C)OC(=O)N1CCC(COc2ncc(-c3ccc(S(C)(=O)=O)cc3)cn2)CC1` [EXAMPLE A2, tert-Butyl 4-[({5-[4-(methylsulfonyl)phenyl]pyrimidin-2-yl}oxy)methyl]piperidine-1-carboxylate], the EC50 stood at 0.014 µM.
The value for `CC(C)(C)OC(=O)N1CCC(CNc2ncc(-c3ccc(S(C)(=O)=O)cc3)cn2)CC1` [EXAMPLE A22, tert-Butyl 4-[({5-[4-(methylsulfonyl)phenyl]pyrimidin-2-yl}amino)methyl]piperidine-1-carboxylate] was 0.055 µM; that for `CC(C)(C)OC(=O)N1CCC(NCc2cnc(-c3ccc(S(C)(=O)=O)cc3)nc2)CC1` [EXAMPLE B1, tert-Butyl 4-[({2-[4-(methylsulfonyl)phenyl]pyrimidin-5-yl}methyl)amino]piperidine-1-carboxylate] was 0.453 µM.
